Results on 1 compound are retold here after patent US8440794B2, “Peptide sequences, their branched form and use thereof for antimicrobial applications” (Universita' Degli Studi di Siena, priority 2008, dated 2013).

Molecules are shown by their SMILES. Converted amounts (≈) assume the structure as drawn. Where a SMILES comes first, the peptide text is derived from it. Bridges are numbered along the chain shown (N, C = ends). Roman numbers before positions name the chains, in order. [ ]: non-standard residue; d: D form. βAla = NCCC(=O)O Where only a bound is given, the exact number is not on record here.

Test [1] has as its system LPS from P. aeruginosa serotype 10 ATCC27316; TNF-α secretion by Raw 264.7 macrophages. Put plainly: Inhibition of LPS-induced TNF-α secretion by Raw 264.7 macrophages, LPS from P. aeruginosa. In kind it is cell-based. The method, then: FIG. 3. Inhibition of TNF-α release by neutralization of LPS. A, Raw 264.7 cells were incubated with LPS from P. aeruginosa 20 ng/ml and M33. Triangles indicate incubation with LPS and different concentrations of M33. Squares indicate incubation with M33 only. B, Raw 264.7 cells were incubated with LPS from K. pneumoniae 5 ng/ml and M33. Triangles indicate incubation of macrophages with LPS and different concentrations of M33. Squares indicate incubation of macrophages with M33 only. SD derived by means of three different experiments. 100% indicates the maximum amount of TNF-α produced by macrophages when incubated with LPS without M33. The other percentages indicate the amount of TNF-α produced by macrophages when incubated with LPS and M33, with respect to 100%. Basal levels of TNF-α were negligible. MIC of M33 is indicated by the arrow.
Then it was examined for inhibiting LPS-induced TNF-α, secretion by Raw 264.7 macrophages.

Test [2] has as its system E. coli W03BG0025. In kind it is cell-based, Escherichia coli. The settings on record: W03BG0025, 24 h. The method, then:
(§1) M33, […], M35 and M36 MICs were determined against strains of several bacterial species, including Gram-negative pathogens and also Staphylococcus aureus (Table 1). MICs in the micromolar range were observed against several Gram-negatives including Pseudomonas aeruginosa, Acinetobacter baumannii and most Enterobacteriaceae, with the exception of Proteus mirabilis, Serratia marcescens and Burkholderia cepacia. Activity of peptides was retained against MDR strains with various resistance mechanisms (such as extended-spectrum beta-lactamases and carbapenemases), including MDR P. aeruginosa strains from CF patients. Antimicrobial profile of M33, […] and potency were overall similar to those of polymyxin B, although M33, M34, M35 and M36 also appeared to have some activity against S. aureus (Table 1).

The test system of test [3] is E. coli TG1. Description: In vivo antibacterial activity, mice infected ip with lethal amount of E. coli TG1. Further details: species or system Balb-c mice. The settings on record: E. coli TG1 1.5×10^9 CFU ip; single dose 10 mg/Kg ip 30 minutes later. The method, then: FIG. 4. In vivo antibacterial activity of tetra-branched M33 peptide. A, Balb-c mice (20 g) were intra-peritoneally injected with a lethal amount of E. coli TG1 cells (1.5×10^9 CFU). Continuous line (Ctr) indicates mice only injected ip with bacteria and no M33. Broken line indicates mice injected ip with bacteria and a single injection of M33 peptide 10 mg/Kg 30 minutes later. B, Balb-c mice (20 g) were intra-peritoneally injected with a lethal amount of P. aeruginosa cells (ATCC 27853 1×10^7 CFU). Continuous line (Ctr) indicates mice which only received bacteria; other groups received bacteria and a single dose of M33 30 minutes later (see figure for doses of M33). C, Balb-c mice (20 g) were intra-peritoneally injected with a lethal amount of P. aeruginosa cells (multi drug resistant VR 147 clinical isolate, 1.5×10^7 CFU). Continuous line (Ctr) indicates mice which only received bacteria; broken line indicates mice which received bacteria and a single dose of M33 25 mg/Kg. D, Balb-c mice (20 g) were intra-peritoneally injected with a lethal amount of P. aeruginosa cells (ATCC 27853 1×10^7 CFU). […]
Tetra-branched M33 peptide was analysed for its antibacterial activity in mice infected with lethal amounts of bacteria. […]

The subject of test [4] is S. aureus 3851. In kind it is cell-based, Staphylococcus aureus. The settings on record: 3851, 24 h. The method, then:
as §1

In test [5] the test system is LPS. Put plainly: Limulus amebocyte lysate test (E-toxate), LPS neutralization. The settings on record: not shown.
The subject of test [6] is A. baumannii RUH 875. In kind it is cell-based, Acinetobacter baumannii. The settings on record: RUH 875, 24 h. The method, then:
as §1

Test [7] relates to A. baumannii MR157. In kind it is cell-based, Acinetobacter baumannii. The settings on record: MR157, 24 h. The method, then: as §1
Test [8] concerns P. aeruginosa ATCC 27853. Put plainly: In vivo antibacterial activity, mice infected ip with lethal amount of P. aeruginosa ATCC 27853. Further details: species or system Balb-c mice. The settings on record: for Animals protected from death: P. aeruginosa ATCC 27853 1×10^7 CFU ip. The method, then:
FIG. 4. In vivo antibacterial activity of tetra-branched M33 peptide. A, Balb-c mice (20 g) were intra-peritoneally injected with a lethal amount of E. coli TG1 cells (1.5×10^9 CFU). Continuous line (Ctr) indicates mice only injected ip with bacteria and no M33. Broken line indicates mice injected ip with bacteria and a single injection of M33 peptide 10 mg/Kg 30 minutes later. B, Balb-c mice (20 g) were intra-peritoneally injected with a lethal amount of P. aeruginosa cells (ATCC 27853 1×10^7 CFU). Continuous line (Ctr) indicates mice which only received bacteria; other groups received bacteria and a single dose of M33 30 minutes later (see figure for doses of M33). C, Balb-c mice (20 g) were intra-peritoneally injected with a lethal amount of P. aeruginosa cells (multi drug resistant VR 147 clinical isolate, 1.5×10^7 CFU). Continuous line (Ctr) indicates mice which only received bacteria; broken line indicates mice which received bacteria and a single dose of M33 25 mg/Kg. D, Balb-c mice (20 g) were intra-peritoneally injected with a lethal amount of P. aeruginosa cells (ATCC 27853 1×10^7 CFU). Continuous line (Ctr) indicates mice which only received bacteria; long broken line, mice receiving bacteria and two injections of M33 (5 mg/Kg×2), 30 minutes and 12 hours after bacteria; short broken line, mice receiving bacteria and three injections of M33 (5 mg/Kg×3), 30 minutes, 12 and 24 hours after bacteria. P<0.05.
Tetra-branched M33 peptide was analysed for its antibacterial activity in mice infected with lethal amounts of bacteria. Two different bacterial species were used, Escherichia coli and Pseudomonas aeruginosa. […] Balb-c mice were infected with the LD100 of bacteria and treated 30 minutes later with the peptide by ip administration.

Test [9] relates to Serratia marcescens W03BG0003. In kind it is cell-based. The settings on record: W03BG0003, 24 h. The method, then: as §1
Test [10] concerns Acinetobacter baumannii RUH 134. In kind it is cell-based. The settings on record: RUH 134, 24 h. The method, then: as §1
The subject of test [11] is Proteus mirabilis W03VA1017. In kind it is cell-based. The settings on record: W03VA1017, 24 h. The method, then:
as §1

Test [12] has as its system Enterobacer aerogenes W03BG0067. In kind it is cell-based. The settings on record: 24 h. The method, then:
as §1

Test [13] concerns Escherichia coli ATCC 25922. In kind it is cell-based. The settings on record: ATCC 25922, 24 h. The method, then:
as §1

Test [14] relates to Pseudomonas aeruginosa ATCC 27853. In kind it is cell-based. The settings on record: ATCC 27853, 24 h. The method, then:
as §1

Test [15] has as its system Enterobacter cloacae W03AN0041. In kind it is cell-based. The settings on record: W03AN0041, 24 h. The method, then: as §1
The subject of test [16] is Burkholderia cepacia ORB-99. In kind it is cell-based. The settings on record: 24 h. The method, then:
as §1

Test [17] has as its system Staphylococcus aureus ATCC 29213. In kind it is cell-based. The settings on record: ATCC 29213, 24 h. The method, then: as §1
Test [18] has as its system Klebsiella pneumoniae ATCC 13833. In kind it is cell-based. The settings on record: ATCC 13833, 24 h. The method, then: as §1

As usually defined, the EC50 is the concentration at which the effect is half-maximal. What is called MIC is the lowest concentration found to suppress growth. A low value points to a more susceptible organism. For `CC[C@H](C)[C@H](NC(=O)[C@H](CCCCN)NC(=O)[C@@H](N)CCCCN)C(=O)N[C@@H](CCCNC(=N)N)C(=O)N[C@H](C(=O)N[C@@H](CCCNC(=N)N)C(=O)N[C@@H](CC(C)C)C(=O)N[C@@H](CO)C(=O)N[C@@H](C)C(=O)NCCCC[C@H](NC(=O)[C@H](C)NC(=O)[C@H](CO)NC(=O)[C@H](CC(C)C)NC(=O)[C@H](CCCNC(=N)N)NC(=O)[C@@H](NC(=O)[C@H](CCCNC(=N)N)NC(=O)[C@@H](NC(=O)[C@H](CCCCN)NC(=O)[C@@H](N)CCCCN)[C@@H](C)CC)C(C)C)C(=O)NCCCC[C@H](NC(=O)[C@H](CCCCNC(=O)[C@H](C)NC(=O)[C@H](CO)NC(=O)[C@H](CC(C)C)NC(=O)[C@H](CCCNC(=N)N)NC(=O)[C@@H](NC(=O)[C@H](CCCNC(=N)N)NC(=O)[C@@H](NC(=O)[C@H](CCCCN)NC(=O)[C@@H](N)CCCCN)[C@@H](C)CC)C(C)C)NC(=O)[C@H](C)NC(=O)[C@H](CO)NC(=O)[C@H](CC(C)C)NC(=O)[C@H](CCCNC(=N)N)NC(=O)[C@@H](NC(=O)[C@H](CCCNC(=N)N)NC(=O)[C@@H](NC(=O)[C@H](CCCCN)NC(=O)[C@@H](N)CCCCN)[C@@H](C)CC)C(C)C)C(=O)NCCC(=O)O)C(C)C` [M33, KKIRVRLSA] (I: H-KKIRVRLSAKK[βAla]-OH / II: H-KKIRVRLSAK / III: H-KKIRVRLSA / IV: H-KKIRVRLSA; amide I:10-IV:C, I:11-II:C, II:10-III:C; N-terminus assumed), the 50% effective concentration (EC50) in test [1] (Raw 264.7 macrophages, LPS from P. aeruginosa serotype 10 ATCC27316, 20 ng/ml, read-out: EC50, block of TNF-α secretion) stood at 40 nM. The “Decrease of TNF-α production” value in test [1] (at a concentration corresponding to MIC (1.5-3 μM), LPS from P. aeruginosa) is “more than 90%”. The MIC is 0.7 µM (≈ 3.28 µg/mL) in [2]; 6 µM (≈ 28.1 µg/mL) in test [4]; 3 µM (≈ 14 µg/mL) in test [6]; 3 µM (≈ 14 µg/mL) in test [7]; above 24 µM in test [9]; 1.5 µM (≈ 7.02 µg/mL) in [10]. For the same compound, the MIC was above 24 µM in test [11]; 1.5 µM (≈ 7.02 µg/mL) in test [12]; 1.5 µM (≈ 7.02 µg/mL) in test [13]; 1.5 µM (≈ 7.02 µg/mL) in test [14]; 1.5 µM (≈ 7.02 µg/mL) in test [15]; above 24 µM in test [16]. In addition, the MIC stood at 6 µM (≈ 28.1 µg/mL) in test [17] and 1.5 µM (≈ 7.02 µg/mL) in test [18]. Besides, the “Animals protected from signs of sepsis and death (seven-day survival)” value in test [3] came to 100%. The “Neutralization of sample gelification due to LPS” value in test [5] is on record as “ability to neutralize sample gelification due to LPS”. Further, the figures for the “Animals protected from death” value in [8] (single dose 6.5 mg/Kg ip 30 minutes later), in test [8] (single dose 12.5 mg/Kg ip 30 minutes later) and in test [8] (single dose 25 mg/Kg ip 30 minutes later) were “did not protect them from death”, 25% and 75%, respectively. Also, the “Survival beyond seven days after infection” value in [8] (P. aeruginosa ATCC 27853, three doses of 5 mg/Kg (30 min, 12 h and 24 h after infection)) is given as 100%. Further, the “Survival after multiple doses” value in test [8] (P. aeruginosa ATCC 27853, two doses of 5 mg/Kg (30 min and 12 h after infection)) was “death was delayed”.
